Measurements as given in PubChem BioAssay (NCI).
Values joined by “and” are separate entries in the source; they are usually repeats but may differ in a detail not shown here. Equal entries are not always repeated.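 Dose response: 5 concentrations. Exposure: 48 h. Format: 96-well plates. Endpoint: linear interpolation; highest concentration if not reached. GI50 is the concentration that inhibits growth by half. TGI is the concentration that stops growth completely.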

What was measured:
Assay in all cases: NCI tumour cell line growth inhibition, 48 h
SF-539 CNS = test system: SF-539 CNS
OVCAR-4 ovarian = test system: OVCAR-4 ovarian
PC-3 prostate = test system: PC-3 prostate
HL-60(TB) leukemia = test system: HL-60(TB) leukemia
M14 melanoma = test system: M14 melanoma
KM12 colon = test system: KM12 colon
RXF 393 renal = test system: RXF 393 renal
HOP-62 NSCLC = test system: HOP-62 NSCLC
OVCAR-3 ovarian = test system: OVCAR-3 ovarian
SK-MEL-28 melanoma = test system: SK-MEL-28 melanoma

Row | SMILES | TGI (SF-539 CNS) | TGI (OVCAR-4 ovarian) | TGI (PC-3 prostate) | TGI (HL-60(TB) leukemia) [µM] | TGI (M14 melanoma) | TGI (KM12 colon) | TGI (RXF 393 renal) | TGI (HOP-62 NSCLC) | TGI (OVCAR-3 ovarian) | TGI (SK-MEL-28 melanoma) | GI50 (SF-539 CNS) [µM] | GI50 (OVCAR-4 ovarian) [µM] | GI50 (PC-3 prostate) [µM] | GI50 (HL-60(TB) leukemia) [µM] | GI50 (M14 melanoma) [µM] | GI50 (KM12 colon) [µM] | GI50 (RXF 393 renal) [µM] | GI50 (HOP-62 NSCLC) [µM] | GI50 (OVCAR-3 ovarian) [µM] | GI50 (SK-MEL-28 melanoma) [µM]
1 | CN1CCc2ccccc2C1Cc1ccccc1NC(=O)c1sc2ccccc2c1Cl (stereo not given) | > 100 µM | > 100 µM | > 100 µM | > 100 | > 100 µM | > 100 µM | > 100 µM | > 100 µM | > 100 µM | > 100 µM | – | – | – | – | – | – | – | – | – | –
2 | COc1cc2c(cc1OC)[C@@H]1C(=O)c3ccc4c(c3O[C@@H]1CO2)C[C@H](C(C)C)O4 | > 53.4 µM | > 100 µM | > 30.5 µM | > 23.8 | > 59.4 µM | 26.1 µM | > 76.9 µM | > 60.6 µM | > 41.1 µM | > 58.2 µM | 15 | 0.795 | 1.98 | 1.51 | 7.86 | 5.31 | 16.4 | 9.23 | 7.81 | 15.4
3 | Cc1[nH]c2ccccc2c1CO | 39.9 µM | 82.6 µM | 43.7 µM | 39 | 34.9 µM | 19.4 µM | 47.6 µM | > 100 µM | 19.6 µM | 34.3 µM | 18.8 | 21.4 | 17 | 15.8 | 16.4 | 4.84 | 20.2 | 28.1 | 5.54 | 16.6
4 | ClCc1ccccc1Cn1cnc2nc(Cl)nc(Cl)c21 | 1.29 µM | 4.46 µM | 1.81 µM | 8.45 | 2.46 µM | 24.2 µM | 2.94 µM | 4.4 µM | 12.3 µM | – | 0.639 | 1.76 | 0.323 | 1.35 | 0.851 | 5.93 | – | 2.35 | 5.29 | 0.582
5 | COc1cc2c3c(n(CCCN=[N+]=[N-])c(=O)c2cc1OC)-c1ccc([N+](=O)[O-])cc1C3=O | > 100 µM | > 100 µM | > 100 µM | > 100 | > 100 µM | > 100 µM | > 100 µM | > 100 µM | > 100 µM | > 100 µM | 38.9 | > 100 | > 100 | > 100 | > 100 | > 100 | > 100 | 89.7 | > 100 | > 100
6 | CC(=O)O[C@@H]1c2c(c3c(=O)c4cccc(O)c4c(=O)c=3c2=[N+]=[N-])[C@H](OC(C)=O)[C@@H](OC(C)=O)[C@]1(C)O | 1.14 µM and 0.316 µM | 4.32 µM and 2.16 µM | 1.14 µM and 1 µM | – | 0.992 µM and 0.357 µM | 0.914 µM and 0.9 µM | 1.28 µM and 0.296 µM | 1.37 µM and 1.98 µM | 1.23 µM and 1.4 µM | 1.51 µM and 2.28 µM | 0.162 | – | 0.236 | 0.172 | 0.293 | 0.27 | 0.147 | – | 0.407 | 0.829
7 | COc1cc2c(/C=C3\C(=O)N(C)c4ccccc43)c[nH]c2cc1C | > 31.2 µM | > 100 µM | > 100 µM | 84.8 | > 100 µM | > 100 µM | 69.9 µM | 39.3 µM | 9.78 µM | > 100 µM | 4.2 | > 100 | 2.56 | 2.53 | 0.541 | 0.735 | 2.56 | 2.23 | 3.27 | > 22.4
8 | COc1cccc(/C=C2\CCC(CN(C)C)C2=O)c1 (stereo not given) | 27.9 µM | 22.2 µM | 27.2 µM | 2.47 | 9.62 µM | 15.1 µM | 12.3 µM | 21 µM | 11.9 µM | 8.52 µM | – | – | – | – | – | – | – | – | – | –
9 | CCOC(=O)Cc1csc(NC(=O)C(OC(=O)c2ccc(Cl)cc2)c2ccccc2)n1 (stereo not given) | 54.8 µM | > 100 µM | > 100 µM | 68.9 | 52 µM | > 100 µM | 95.8 µM | > 100 µM | 41.9 µM | 69.2 µM | 25.3 | 40.3 | 35.1 | 9.28 | 22.1 | 38.9 | 28.6 | 44.1 | 17.8 | 25.2
